The values that follow come from ChEMBL document CHEMBL3046368, “Synthesis of benzothiazole derivatives and their biological evaluation as anticancer agents” (2012).

The source made the active and inactive calls. The rule behind the calls is not given here.

For experiment [1], the target named is T1, Ubiquitin-like modifier-activating enzyme 1 (Homo sapiens) (UniProt P22314).
T1 sequence (whole entry): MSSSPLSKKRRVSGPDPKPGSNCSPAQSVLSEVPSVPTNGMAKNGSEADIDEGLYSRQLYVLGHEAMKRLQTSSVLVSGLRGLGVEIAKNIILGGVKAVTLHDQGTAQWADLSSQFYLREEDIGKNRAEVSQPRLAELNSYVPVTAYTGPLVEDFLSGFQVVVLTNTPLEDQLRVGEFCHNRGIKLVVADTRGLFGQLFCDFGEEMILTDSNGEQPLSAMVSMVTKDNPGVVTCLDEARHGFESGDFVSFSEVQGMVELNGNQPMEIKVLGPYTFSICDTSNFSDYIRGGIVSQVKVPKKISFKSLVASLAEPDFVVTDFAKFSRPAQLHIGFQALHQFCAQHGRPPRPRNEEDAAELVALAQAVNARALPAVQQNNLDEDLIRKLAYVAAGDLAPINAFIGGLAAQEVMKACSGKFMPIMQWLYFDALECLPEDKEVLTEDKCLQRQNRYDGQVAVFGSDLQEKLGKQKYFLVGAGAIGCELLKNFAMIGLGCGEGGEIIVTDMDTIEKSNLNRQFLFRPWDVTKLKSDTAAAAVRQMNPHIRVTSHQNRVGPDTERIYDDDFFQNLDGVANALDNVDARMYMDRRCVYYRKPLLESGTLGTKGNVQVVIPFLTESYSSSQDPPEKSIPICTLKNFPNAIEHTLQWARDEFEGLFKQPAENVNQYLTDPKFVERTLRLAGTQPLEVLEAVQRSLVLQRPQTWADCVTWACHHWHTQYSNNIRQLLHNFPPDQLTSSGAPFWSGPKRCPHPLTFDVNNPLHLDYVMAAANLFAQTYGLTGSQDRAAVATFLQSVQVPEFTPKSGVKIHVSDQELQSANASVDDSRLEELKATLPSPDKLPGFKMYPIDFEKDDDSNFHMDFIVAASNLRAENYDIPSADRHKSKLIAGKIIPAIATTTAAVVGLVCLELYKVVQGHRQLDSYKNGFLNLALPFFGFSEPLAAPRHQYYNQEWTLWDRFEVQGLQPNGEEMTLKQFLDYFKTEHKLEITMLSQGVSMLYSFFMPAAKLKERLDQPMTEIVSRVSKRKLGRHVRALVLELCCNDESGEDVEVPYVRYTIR
Put plainly: Inhibition of ubiquitin displacement on His6-tagged E2 enzyme from His6-tagged UBA1 (unknown origin) at 10 uM after 1.5 hr by SDS-PAGE analysis.

The test system of experiment [2] is A498. Nature of the experiment: Cytotoxicity against Homo sapiens (human) A498 cells after 48 hr by SRB assay. It counts as functional. To be noted: A498, 48 h. Background: Sulforhodamine B stains cellular protein and so reports cell mass.
For experiment [3], the system named is MCF7. Nature of the experiment: Cytotoxicity against Homo sapiens (human) MCF7 cells after 48 hr by SRB assay. It counts as functional. To be noted: MCF7, 48 h.
Experiment [4] deals with COLO 205. Nature of the experiment: Cytotoxicity against Homo sapiens (human) COLO205 cells after 48 hr by SRB assay. To be noted: COLO 205, 48 h. Type of experiment: functional.
In experiment [5] the test system is RPMI-8226. Nature of the experiment: Cytotoxicity against Homo sapiens (human) RPMI8226 cells after 48 hr by SRB assay. It counts as functional. To be noted: RPMI-8226, 48 h.
For experiment [6], the system named is SF-539. Nature of the experiment: Cytotoxicity against Homo sapiens (human) SF539 cells after 48 hr by SRB assay. It counts as functional. The note with it: SF-539, 48 h.
For experiment [7], the system named is SN12C. Nature of the experiment: Cytotoxicity against Homo sapiens (human) SN12C cells after 48 hr by SRB assay. It counts as functional.
For experiment [8], the system named is SNB-75. Put plainly: Cytotoxicity against Homo sapiens (human) SNB75 cells after 48 hr by SRB assay. Type of experiment: functional. The note with it: SNB-75, 48 h.
The subject of experiment [9] is OVCAR-3. Nature of the experiment: Cytotoxicity against Homo sapiens (human) OVCAR3 cells after 48 hr by SRB assay. It counts as functional. To be noted: OVCAR-3, 48 h.
The test system of experiment [10] is SF-268. Nature of the experiment: Cytotoxicity against Homo sapiens (human) SF268 cells after 48 hr by SRB assay. The note with it: SF-268, 48 h. Type of experiment: functional.
The test system of experiment [11] is HOP-62. Nature of the experiment: Cytotoxicity against Homo sapiens (human) HOP62 cells after 48 hr by SRB assay. Type of experiment: functional. The note with it: HOP-62, 48 h.
Experiment [12] can be described thus: Cytotoxicity against Homo sapiens (human) colon cancer cells assessed as cell growth at 10^-5 M after 48 hr by SRB assay relative to control. To be noted: Cancer cell lines, read-out: Activity. It counts as functional.
Experiment [13] can be described thus: Cytotoxicity against Homo sapiens (human) NSCLC cells assessed as cell growth at 10^-5 M after 48 hr by SRB assay relative to control. Type of experiment: functional. The note with it: read-out: Activity.
Experiment [14] can be described thus: Cytotoxicity against Homo sapiens (human) CNSC cells assessed as cell growth at 10^-5 M after 48 hr by SRB assay relative to control. Type of experiment: functional. The note with it: read-out: Activity.
Experiment [15] in a line: Cytotoxicity against Homo sapiens (human) prostate cancer cells assessed as cell growth at 10^-5 M after 48 hr by SRB assay relative to control. Type of experiment: functional. To be noted: Cancer cell lines, read-out: Activity.
Experiment [16] in a line: Cytotoxicity against Homo sapiens (human) breast cancer cells assessed as cell growth at 10^-5 M after 48 hr by SRB assay relative to control. Type of experiment: functional. The note with it: Cancer cell lines, read-out: Activity.
Experiment [17] is described as follows: Cytotoxicity against Homo sapiens (human) ovarian cancer cells assessed as cell growth at 10^-5 M after 48 hr by SRB assay relative to control. Type of experiment: functional. To be noted: Cancer cell lines, read-out: Activity.
A short description of experiment [18]: Cytotoxicity against Homo sapiens (human) leukemia cells assessed as cell growth at 10^-5 M after 48 hr by SRB assay relative to control. To be noted: read-out: Activity. It counts as functional.
Experiment [19] can be described thus: Cytotoxicity against Homo sapiens (human) renal cancer cells assessed as cell growth at 10^-5 M after 48 hr by SRB assay relative to control. Type of experiment: functional. The note with it: Cancer cell lines, read-out: Activity.
Experiment [20] in a line: Cytotoxicity against Homo sapiens (human) melanoma cells assessed as cell growth at 10^-5 M after 48 hr by SRB assay relative to control. It counts as functional. The note with it: read-out: Activity.

With `COc1ccc(C(=O)Nc2nc3ccc(OC)cc3s2)cc1`, in experiment [1], the inhibition result is “inactive”.

In the case of `COc1ccc2nc(NC(=O)Nc3ccc(F)cc3)sc2c1`, the inhibition result in [1] was “inactive”.

`O=c1[nH]cc(F)c(=O)[nH]1` [FLUOROURACIL]: the GI50 – broadly, the concentration at which growth is held to half of that of the control – is 398 nM in [2]; 79.4 nM in [3]; 158 nM in experiment [4]; 44.7 nM in experiment [5]; 63.1 nM in [6]; 501 nM in experiment [7]. Moreover, the 50% growth inhibitory concentration (GI50) in [8] was 79.4 µM; in [9], 15.8 nM; in [10], 1580 nM; in experiment [11], 398 nM.

Consider `O=C(Nc1nc2ccc(OC(F)(F)F)cc2s1)Nc1c(F)cccc1F`, for which the growth at 10 µM in [12] came to 91.8%; in [13] it was 77.6%; in [14] it was 96%; in [15], 83.8%; in [16], 89.5%; in [17], 90.2%. The values for the growth at 10 µM in [18], in experiment [19] and in experiment [20] were 64.4%, 89.4% and 89.6%, respectively. Moreover, the inhibition result in [1] was “inactive”.

Turning to `O=C(Nc1nc2ccc(OC(F)(F)F)cc2s1)c1c(F)cccc1F`, in experiment [1], the inhibition result is “inactive”.

On to `COc1ccc2nc(NC(=O)Nc3ccc(C#N)cc3)sc2c1`, for which the inhibition entry in experiment [1] is “inactive”.

For the compound `COc1ccc2nc(NC(=O)c3ccc(NC(C)=O)cc3)sc2c1`, the inhibition result in experiment [1] was “inactive”.

`COc1ccc(NC(=O)Nc2nc3ccc(OC(F)(F)F)cc3s2)cc1`: the growth at 10 µM in experiment [12] turned out to be 101%; in experiment [13], 95.8%; in experiment [14] it was 103%; in experiment [15], 95.3%; in experiment [16], 97.8%; in experiment [17] it was 97.5%. The results for the growth at 10 µM in experiment [18], in experiment [19] and in experiment [20] were 87%, 99.4% and 104%, respectively. In addition, the inhibition entry in experiment [1] was “inactive”.

Regarding `COc1ccc2nc(NC(=O)Nc3c(F)cccc3F)sc2c1`, the growth at 10 µM in [12] stood at 107%; in experiment [13] it was 99.2%; in [14] it was 104%; in [15], 100%; in [16], 107%; in [17], 108%. Moreover, the growth at 10 µM in experiment [18] came to 91.2%; in [19] it was 97.9%; in experiment [20] it was 102%. Also, in [1], the inhibition entry is “inactive”.

Regarding `COc1ccc2nc(NC(=O)c3c(F)cccc3F)sc2c1`, the inhibition entry in experiment [1] is “inactive”.

For `O=C(Nc1nc2ccc(OC(F)(F)F)cc2s1)c1ccc(F)cc1`, the inhibition result in [1] is “inactive”.

`COc1ccc(C(=O)Nc2nc3ccc(OC(F)(F)F)cc3s2)cc1`: the inhibition result in experiment [1] was “inactive”.

`COc1ccc(NC(=O)Nc2nc3ccc(OC)cc3s2)cc1`: in experiment [1], the inhibition result was “inactive”.

With `N#Cc1ccc(C(=O)Nc2nc3ccc(OC(F)(F)F)cc3s2)cc1`, in [1], the inhibition result is “inactive”.

As for `COc1ccc2nc(NC(=O)c3ccc(F)cc3)sc2c1`, the inhibition result in experiment [1] was “inactive”.

Take `COc1ccc2nc(NC(=O)c3ccc(C#N)cc3)sc2c1`: the inhibition entry in experiment [1] is “inactive”.

For the compound `CC(=O)Nc1ccc(C(=O)Nc2nc3ccc(OC(F)(F)F)cc3s2)cc1`, the inhibition entry in experiment [1] was “inactive”.
